Results taken from patent US20240415918A1, “Polypeptide and its use as a CCK receptor agonist/antagonist” (Centre for Regenerative Medicine & Health, Hong Kong …, priority 2021, published 2024).
Read-outs that look alike come from different tables or passages of the source. Where a SMILES comes first, the peptide text is derived from it. [ ]: non-standard residue; d: D form. Phe(3-Br) = N[C@@H](Cc1cccc(Br)c1)C(=O)O; Nle = CCCC[C@H](N)C(=O)O

What was measured:
[1] = molecular target: T1, CCK-B receptors (CHO-CCK) (Homo sapiens, UniProt P32239); assay: Calcium flux (Fluo-8) agonist test on CHO-CCK model cells; type: cell-based; settings: CHO-CCK cells; for EC50: compound alone, 100% = 20 nM CCK8
T1 construct: expressed in transfected cells; host or cells: CHO (CHO-CCK model cells)
T1 sequence (P32239 1-447): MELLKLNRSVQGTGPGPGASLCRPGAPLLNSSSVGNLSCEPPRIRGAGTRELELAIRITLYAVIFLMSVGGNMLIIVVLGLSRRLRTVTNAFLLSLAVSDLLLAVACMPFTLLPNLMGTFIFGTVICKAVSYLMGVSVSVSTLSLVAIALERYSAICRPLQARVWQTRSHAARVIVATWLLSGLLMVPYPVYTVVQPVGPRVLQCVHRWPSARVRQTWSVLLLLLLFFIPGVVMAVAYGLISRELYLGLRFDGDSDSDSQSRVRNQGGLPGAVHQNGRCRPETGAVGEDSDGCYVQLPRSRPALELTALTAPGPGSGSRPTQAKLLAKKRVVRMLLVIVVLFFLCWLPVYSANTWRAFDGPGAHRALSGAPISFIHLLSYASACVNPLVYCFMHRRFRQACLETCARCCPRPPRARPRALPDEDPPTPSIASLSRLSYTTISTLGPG
Outline: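 Agonist-mode Fluo-8 calcium flux read on CHO-CCK cells after dye loading 30 min at 37 °C plus 30 min at room temperature.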

[2] = molecular target: T1, CCK-B receptors (CHO-CCK); assay: Calcium flux (Fluo-8) antagonist test on CHO-CCK model cells in presence of CCK8; type: cell-based; settings: compound together with 10 nM CCK8
memory-deficient mice [3] = assay: Morris water maze, memory-deficient mice; type: in vivo; settings: intraperitoneal injection, CCK4 four times a day 10 days, HT compounds once a day 8 days
Text: Adult memory-deficient mice were housed under standard conditions with free access to food and water. Our Morris water maze experiment for testing memory-deficient mice mainly included two parts: positioning navigation experiment and space exploration experiment. The experimental methods were the same as Example 5. We randomized memory-deficient mice into six groups, with the first group given intraperitoneal injection of the CCK4 solution, the second group given intraperitoneal injection of the solvent of CCK4 solution as a control, the third group given intraperitoneal injection of the compound HT-267 solution, the fourth group given intraperitoneal injection of the compound HT-177 solution, the fifth group given intraperitoneal injection of the compound HT-178 solution, and the sixth group given intraperitoneal injection of the solvent of compound solution as a control. In the positioning navigation experiment, the treatment and training methods of the first and the second groups were the same as those of the first and second groups in Example 5, that is, four times of treatment a day, four times of training a day, for a total of 10 days of training. The treatment and training methods of the third to sixth groups were the same as the third and fourth groups in Example 5, that is, one treatment a day, four times of training a day, for a total of 8 days of training. In the space exploration experiment, the spatial memory ability of mice was tested in the same way for each group.

memory-deficient mice [4] = assay: New object recognition experiment, memory-deficient mice; type: in vivo; settings: intraperitoneal injection
Text: The new object recognition experiment is a highly validated method of cognitive memory, designed by Ennaceur & Delacour (1988) based on the exploration characteristics of rodents to new environments, and this model evaluates the memory function of the tested animal based on the length of time that the animal spends in exploring familiar objects it has seen in the environment and new objects it has not seen. […] The experiment is usually divided into three stages: 1. Adaptation period: let the animal be familiar with the experimental environment, and no objects are placed in the experimental box; 2. Familiarization period: place two identical objects in the experimental box and let the mice explore freely for 10 minutes; 3. Test period: put a new object in the experimental box to replace one of the old objects, and the positions of the objects remain unchanged. The exploration of mice was recorded with video, and the time spent in exploring the old and new objects by mice was analyzed, and the proportion of time spent in exploring the new object by mice in the test period accounting for the total time for exploring the objects was calculated, that is, the recognition index of new objects.
Adult memory-deficient mice were housed under standard conditions with free access to food and water. Our new object recognition experiment for testing memory-deficient mice mainly included the adaptation period, the familiarization period, and the test period. The experimental method was the same as Example 12.
We randomized memory-deficient mice into four groups, with one group given intraperitoneal injection of the solvent of drug as the control group, administration group 1 given intraperitoneal injection of the compound HT-267 solution, administration group 2 given intraperitoneal injection of the compound HT-177 solution, and administration group 3 given intraperitoneal injection of the compound HT-178 solution. After the adaptation and familiarization period training, we tested the recognition memory of several groups of mice in the test period experiment.

[5] = system: neocortex of memory-deficient mice; assay: Long-term potentiation, in vitro field potential recording of brain slices (MED64), memory-deficient mice; type: cell-based; settings: compound injected for five minutes
Text: An in vitro electrophysiological electrical signal recording method was used to investigate whether compound HT-267, compound HT-177, and compound HT-178 can induce long-term potentiation in the neocortex of memory-deficient mice. The MED64 low-noise multi-electrode recording system was used to record the electrical signals of brain slices cultured in vitro.

[6] = system: CCK-B receptor carrying green fluorescence; settings: intraperitoneal injection, visual cortex imaging
in vivo = settings: male, KM, mouse, iv, 1 mg/kg, T1/2
[7] = Pharmacokinetics in KM mice after intravenous administration; settings: male, mouse, plasma, 1 mg/kg
senile wild-type mice = assay: Morris water maze, senile wild-type mice; type: in vivo, mice (C57BL/6); settings: intraperitoneal injection
[8] = system: tri-transgenic Alzheimer's mice (3×Tg-AD); assay: Morris water maze, Alzheimer's mice; type: in vivo; settings: intraperitoneal injection
Text: Adult male tri-transgenic Alzheimer's mice (3×Tg-AD) were housed under standard conditions with free access to food and water. Our Morris water maze experiment for testing Alzheimer's mice mainly included two parts: positioning navigation experiment and space exploration experiment. The positioning navigation experiment lasted for 8-10 days, and the mice were put into the water four times a day from four entry points facing the pool wall, and the time they spent in finding the hidden platform under the water surface (evasion latency) was recorded. The space exploration experiment was to remove the platform after the positioning navigation experiment, and then put the mice into the pool, record their swimming tracks within one minute, investigate the memory of the mice on the original platform, and calculate the proportion of exploration duration of the mice in the quadrant where the original platform was located (target quadrant). Alzheimer's mice were confirmed to have memory deficiency in the Morris water maze experiment, showing not only a longer evasion latency for positioning the hidden platform in the positioning navigation experiment, but also a worse memory backtracking ability in the space exploration experiment. We randomized Alzheimer's mice into four groups, with the first group given intraperitoneal injection of the CCK4 solution, the second group given intraperitoneal injection of the solvent of CCK4 solution as a control, the third group given intraperitoneal injection of the compound HT-267 solution, and the fourth group given intraperitoneal injection of the solvent of HT-267 solution as a control.

[9] = male, KM, mouse, in vivo, iv, 1 mg/kg
[10] = mouse, in vivo; cited from earlier work

| SMILES | EC50 [1] | EC50 [2] | proportion of exploration duration in the target quadrant vs control (memory-deficient mice [3]) | recognition index of new objects vs control (memory-deficient mice [4]) | basal field potential after administration (long-term potentiation) [5] | agonistic/antagonistic activity on CCK-B receptors (in words) ([1]; calcium signal) | blood-brain barrier crossing / green fluorescence signal of CCK-B receptor sensor [6] | half-life (in vivo) | AUC(0-inf) [7] | Cmax [7] | Tmax [7] | evasion latency in positioning navigation experiment vs control (senile wild-type mice) | spatial exploration tracks in space exploration experiment (senile wild-type mice) | proportion of exploration duration in the target quadrant vs control [8] | spatial exploration tracks in space exploration experiment [8] | evasion latency in positioning navigation experiment vs control ([8]; CCK4 four times a day 10 days, HT-267 once a day 8 days) | concentration in blood samples (below detection limitation) [9] | half-life [10] |
| --- | --- | --- | --- | --- | --- | --- | --- | --- | --- | --- | --- | --- | --- | --- | --- | --- | --- | --- |
| CCCC[C@H](NC(=O)[C@@H](Cc1c[nH]c2ccccc12)NC(C)=O)C(=O)N[C@@H](CC(=O)O)C(=O)N[C@@H](Cc1cccc(Br)c1)C(N)=O [HT-178, Ac-D-Trp-Nle-Asp-Phe(3-Br)-NH2] (Ac-[dW][Nle]D[Phe(3-Br)]-NH2) | 2.81 nM | 528 nM | significantly higher than that in the control group | significantly higher than that of the control group | enhanced, and the enhancement lasted for more than one hour |  |  |  |  |  |  |  |  |  |  |  |  |  |
| CCCC[C@H](NC(=O)[C@H](Cc1c[nH]c2ccccc12)NC(C)=O)C(=O)N[C@@H](CC(=O)O)C(=O)N[C@@H](Cc1cccc(Br)c1)C(N)=O [HT-177, Ac-Trp-Nle-Asp-Phe(3-Br)-NH2] (Ac-W[Nle]D[Phe(3-Br)]-NH2) | 0.056 nM | 279 nM | significantly higher than that in the control group | significantly higher than that of the control group | enhanced, and the enhancement lasted for more than one hour | more active | crossed the blood-brain barrier and was bound to the CCK-B receptor | 43.3 min | 641 ng·h/mL | 403 ng/mL | 15 min |  |  |  |  |  |  |  |
| CSCC[C@H](NC(=O)[C@@H](N)Cc1c[nH]c2ccccc12)C(=O)N[C@@H](CC(=O)O)C(=O)N[C@@H](Cc1ccccc1)C(N)=O [CCK4, Trp-Met-Asp-Phe-NH2, reference compound] |  |  | significantly higher than that in the control group |  |  |  |  |  |  |  |  | shorter than that of the control group | more spatial exploration tracks at the original position of the platform | significantly higher than the control group | more spatial exploration tracks at the original position of the platform | shorter than that of the control group | < 50 ng/mL | less than 5 minutes |
